{
  "source": "patent US20060069132A1",
  "about": "“Azolecarboxamide herbicides” (priority 2004, published 2006)",
  "test_in_all_cases": "Test E pre-/postemergence herbicide test",
  "settings_in_all_cases": "Preemergence",
  "key": {"goosegrass": {"system": "goosegrass", "format": "in vivo, Eleusine indica", "in_short": "(§1)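 In this greenhouse assay, compounds in a solvent vehicle containing surfactant were applied pre- and postemergence, the latter to plants 2 to 18 cm high. Control was judged by eye after 12 to 14 days on a 0 to 100 scale.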"}, "annual bluegrass": {"system": "annual bluegrass", "format": "in vivo, Poa annua", "in_short": "as §1"}, "green foxtail": {"system": "green foxtail", "format": "in vivo, Setaria viridis", "in_short": "as §1"}, "field bindweed": {"system": "field bindweed", "format": "in vivo, Convolvulus arvensis", "in_short": "as §1"}, "tropical spiderwort": {"system": "tropical spiderwort", "format": "in vivo, Commelina benghalensis", "in_short": "as §1"}, "purple nutsedge": {"system": "purple nutsedge", "format": "in vivo, Cyperus rotundus", "in_short": "as §1"}, "downy bromegrass": {"system": "downy bromegrass", "format": "in vivo, Bromus tectorum", "in_short": "as §1"}, "Russian thistle": {"system": "Russian thistle", "format": "in vivo, Salsola kali", "source_text": "Seeds of plant species selected from bipinnate beggarticks (Bidens bipinnata L.), hairy beggarticks (Bidens radiata Thuill.), bermudagrass (Cynodon dactylon (L.) Pers.), Surinam grass (Urochloa decumbens (Staph) R. D. Webster, previously named Brachiaria decumbens Stapf), large crabgrass (Digitaria sanguinalis (L.) Scop.), green foxtail (Setaria viridis (L.) P. Beauv.), goosegrass (Eleusine indica (L.) Gaertn.), johnsongrass (Sorghum halepense (L.) Pers.), kochia (Kochia scoparia (L.) Schrad.), pitted morningglory (Ipomoea lacunosa L.), purple nutsedge (Cyperus rotundus L.), common ragweed (Ambrosia elatior L.), mustard (Brassica nigra (L.) W. D. J. Koch), guineagrass (Panicum maximum Jacq.), dallisgrass (Paspalum dilatatum Poir.), barnyardgrass (Echinochloa crus-galli (L). P. Beauv.), southern sandbur (Cenchrus echinatus L.), common sowthistle (Sonchus oleraceous L.), prickly sida (Sida spinosa L.), Italian ryegrass (Lolium multiflorum Lam.), common purslane (Portulaca oleracea L.), broadleaf signalgrass (Brachiaria platyphylla (Griseb.) Nash), common groundsel (Senecio vulgaris L.), common chickweed (Stellaria media (L.) Vill/Cyr.), tropical spiderwort (Commelina benghalensis L.), annual bluegrass (Poa annua L.), downy bromegrass (Bromus tectorum L.), itchgrass (Rottboellia cochinchinensis (L.) L.f.), quackgrass (Elytrigia repens (L.) Nevski), Canada horseweed (Erigeron Canadensis L.), field bindweed (Convolvulus arvensis L.), spotted spurge (Euphorbia maculata L.), common mallow (Malva sylvestris (=s silvestris) L.), and Russian thistle (Salsola kali L. ssp. Ruthenica (Iljin) Soo) were planted and treated preemergence with test chemicals formulated in a non-phytotoxic solvent mixture which included a surfactant.\nAt the same time, plants selected from these weed species were treated with postemergence applications of some of the test chemicals formulated in the same manner. Plants ranged in height from 2 to 18 cm (1- to 4-leaf stage) for postemergence treatments. Treated plants and controls were maintained in a greenhouse for 12 to 14 days, after which time all species were compared to controls and visually evaluated. Plant response ratings, summarized in Table E, are based on a scale of 0 to 100 where 0 is no effect and 100 is complete control. A dash (-) response means no test result."}, "[1]": {"settings": "250 g ai/ha, scale 0 (no effect) to 100 (complete control)"}, "[2]": {"settings": "500 g ai/ha, scale 0 (no effect) to 100 (complete control)"}},
  "data": [
    {"smiles": "CCN1N=C(C(C)(C)C)CC1C(=O)Nc1cc(C(=O)N(C)C)ccc1F", "note": "(stereo not shown) [Compound 268, N-[5-[(dimethylamino)carbonyl]-2-fluorophenyl]-3-(1,1-dimethylethyl)-1-ethyl-4,5-dihydro-1H-pyrazole-5-carboxamide]", "values": [
      {"measurement": "Plant response rating, Goosegrass", "setting": "goosegrass; 62 g ai/ha, scale 0 to 100", "result": 70},
      {"measurement": "Plant response rating, Goosegrass", "setting": "goosegrass; 125 g ai/ha, scale 0 to 100", "result": 80},
      {"measurement": "Plant response rating, Goosegrass", "setting": "goosegrass; [1]", "result": 95},
      {"measurement": "Plant response rating, Goosegrass", "setting": "goosegrass; [2]", "result": 95},
      {"measurement": "Plant response rating, Bluegrass", "setting": "annual bluegrass; 62 g ai/ha, scale 0 to 100", "result": 80},
      {"measurement": "Plant response rating, Bluegrass", "setting": "annual bluegrass; 125 g ai/ha, scale 0 to 100", "result": 95},
      {"measurement": "Plant response rating, Bluegrass", "setting": "annual bluegrass; [1]", "result": 95},
      {"measurement": "Plant response rating, Bluegrass", "setting": "annual bluegrass; [2]", "result": 95},
      {"measurement": "Plant response rating, Foxtail, Green", "setting": "green foxtail; 62 g ai/ha, scale 0 to 100", "result": 70},
      {"measurement": "Plant response rating, Foxtail, Green", "setting": "green foxtail; 125 g ai/ha, scale 0 to 100", "result": 95},
      {"measurement": "Plant response rating, Foxtail, Green", "setting": "green foxtail; [1]", "result": 100},
      {"measurement": "Plant response rating, Foxtail, Green", "setting": "green foxtail; [2]", "result": 100},
      {"measurement": "Plant response rating, Bindweed, Field", "setting": "field bindweed; 62 g ai/ha, scale 0 to 100", "result": 0},
      {"measurement": "Plant response rating, Bindweed, Field", "setting": "field bindweed; 125 g ai/ha, scale 0 to 100", "result": 20},
      {"measurement": "Plant response rating, Bindweed, Field", "setting": "field bindweed; [1]", "result": 40},
      {"measurement": "Plant response rating, Bindweed, Field", "setting": "field bindweed; [2]", "result": 70},
      {"measurement": "Plant response rating, Spiderwort", "setting": "tropical spiderwort; 125 g ai/ha, scale 0 to 100", "result": 70},
      {"measurement": "Plant response rating, Spiderwort", "setting": "tropical spiderwort; [1]", "result": 85},
      {"measurement": "Plant response rating, Spiderwort", "setting": "tropical spiderwort; [2]", "result": 90},
      {"measurement": "Plant response rating, Nutsedge, Purple", "setting": "purple nutsedge; 62 g ai/ha, scale 0 to 100", "result": 50},
      {"measurement": "Plant response rating, Nutsedge, Purple", "setting": "purple nutsedge; 125 g ai/ha, scale 0 to 100", "result": 70},
      {"measurement": "Plant response rating, Nutsedge, Purple", "setting": "purple nutsedge; [1]", "result": 85},
      {"measurement": "Plant response rating, Nutsedge, Purple", "setting": "purple nutsedge; [2]", "result": 85},
      {"measurement": "Plant response rating, Bromegrass, Downy", "setting": "downy bromegrass; 125 g ai/ha, scale 0 to 100", "result": 80},
      {"measurement": "Plant response rating, Bromegrass, Downy", "setting": "downy bromegrass; [1]", "result": 80},
      {"measurement": "Plant response rating, Bromegrass, Downy", "setting": "downy bromegrass; [2]", "result": 100},
      {"measurement": "Plant response rating, Thistle", "setting": "Russian thistle; 125 g ai/ha, scale 0 to 100", "result": 60},
      {"measurement": "Plant response rating, Thistle", "setting": "Russian thistle; [2]", "result": 100}
    ]}
  ]
}
